Data as given in US20070261453A1, “Plant Nutrient Based on O,P-Ethylene(Bis)Hydroxyphenyl Glycines” (priority 2004, published 2007).

Tested on: Soybean (cv.Oshumi) plants
Test: Soybean iron chlorosis experiment in aerated nutrient solution with Fe chelate treatments (plant weight, iron content, SPAD index)
Type: in vivo
Details: for Iron content in parts of the plants: leaf / Iron content in parts of the plants: per number of leaves / Iron content in parts of the plants: root: dry digestion and atomic absorption, sampled after 14 days; for Iron content in parts of the plants: leaf / Iron content in parts of the plants: per number of leaves / Iron content in parts of the plants: root / Dry leaf weight / Dry root weight / Fresh leaf weight / Fresh plant weight / Fresh root weight: mean of 4 replicates; for Dry leaf weight / Dry root weight / Fresh leaf weight / Fresh plant weight / Fresh root weight: iron-chlorotic soybean plants, sampled 14 days after start of Fe treatment; for Spad index (second leaf): Minolta SPAD 502, means of 4 replicates
Experimental: Soybean (cv.Oshumi) plants have been used in the biological experiment. Plants were obtained from soybean seeds that were germinated in standard seed growing procedure in closed sterilized trays. The seeds were placed in the trays on a cellulose paper soaked with 50 milliliters of distilled water and with another paper placed over them. 30 ml distilled water and 20 ml CaSO4 1 mM were added. The trays were placed in a thermostatized stove, without light, at […] for 3 days. After this time the seedlings of similar development were placed on a holed plate floating over containers full of diluted nutrient solution and EDTA for 7 days. Nutrient solutions (without iron) were a mixture of: macronutrients: 1 mM Ca(NO3)2·4H2O, 0.9 mM KNO3, 0.3 mM MgSO4, 0.1 mM KH2PO4; cationic micronutrients: 2.5 μM MnSO4, 1 μM CuSO4, 10 μM ZnSO4, 1 μM NiCl2, 1 μM CoSO4, 115.5 μM EDTANa2 (100 μM in excess to buffer micronutrients activities), 231 μM KOH; anionic micronutrients: 35 μM NaCl, 10 μM H3BO3, 0.05 μM Na2MoO4. The pH was buffered at 7.5 with 0.1 mM HEPES (N-2-Hydroxyethylpiperazine-N′-2-ethanesulfonic acid), 0.05mM KOH and 2 g of CaCO3 per pot. Later, plants were subjected to a stressing procedure that consisted in putting them in five pails that contained 10 | each one of nutrient solution without iron chelate. […] After 6 days, the stems of two plants were wrapped together with foam and placed in 2 | polyethylene vessels (3 holes per lid, 2 plants per pot). The pots were completely covered with black plastic to avoid the incidence of the light. The vessels contained 2 | of continuously aerated nutrient solution containing the Fe treatments. Nutrient solution consisted of macronutrients and anionic micronutrients as before and cationic micronutrients: MnSO4 (1 μM), CuSO4 (0.5 μM), ZnSO4 (0.5 μM), NiCl2 (0.1 μM) and CoSO4 (0.1 μM). Water was added every two days and the solution was renewed every week. Plants were sampled 14 days after. Roots and leaves were separated and washed first with Tween® 80 (polyoxyethylene sorbitan monooleate) in 0.1 M HCl for 30 seconds, and then with abundant distilled water, after that they were weighted and dried. Micronutrientes were determined in leaves and in roots after dry digestion procedure and atomic absorption. During the experiment SPAD readings were frequently taken using the Minolta SPAD 502 chlorophyll meter, for all the leaves.
Seven different treatments were applied: • Comparative Example 1: No iron added. • Comparative Example 2: Fe-o,o-EDDHA 5 μM • Comparative Example 3: Fe-o,o-EDDHA 5 μM+Fe-o,p-EDDHA 1 μM. • Comparative Example 4: Fe-o,o-EDDHA 5 μM+Fe-o,p-EDDHA 2.5 μM. • Comparative Example 5: Fe-o,o-EDDHA 10 μM • Example 1: Fe-o,p-EDDHA 5 μM. • Example 2: Fe-o,o-EDDHA 5 μM+Fe-o,p-EDDHA 5 μM.
Four replications were prepared for each treatment.

[1] = listed as Comparative Example 2

Structure (SMILES)	Dry leaf weight	Dry root weight	Fresh leaf weight	Fresh plant weight	Fresh root weight	Iron content in parts of the plants: leaf	Iron content in parts of the plants: per number of leaves	Iron content in parts of the plants: root	Spad index (second leaf) (time 0 days)	Spad index (second leaf) (time 2 days)	Spad index (second leaf) (time 4 days)	Spad index (second leaf) (time 7 days)	Spad index (second leaf) (time 9 days)	Spad index (second leaf) (time 11 days)	other results
O=C([O-])C(NCCNC(C(=O)[O-])c1ccccc1[O-])c1ccccc1[O-].[Fe+3] (single isomer, unassigned) [Comp. Example 2, Fe-o,o-EDDHA]	0.321 g	0.282 g	1.257 g	6.781 g	3.818 g										Iron content in parts of the plants: leaf [1]: 62.30 μg Fe/g dry leave; Iron content in parts of the plants: per number of leaves [1]: 19.82 μg Fe/number of leaves; Iron content in parts of the plants: root [1]: 90.32 μg Fe/g dry root; Spad index (second leaf) (time 0 days, listed as C2): 12.7; Spad index (second leaf) (time 2 days, listed as C2): 10.1; Spad index (second leaf) (time 4 days, listed as C2): 9.1; Spad index (second leaf) (time 7 days, listed as C2): 9.5; Spad index (second leaf) (time 9 days, listed as C2): 9.2; Spad index (second leaf) (time 11 days, listed as C2): 8.2
O=C([O-])C(NCCNC(C(=O)[O-])c1ccccc1[O-])c1ccccc1[O-].[Fe+3] (single isomer, unassigned) [Comp. Example 5, Fe-o,o-EDDHA]	0.781 g	0.425 g	4.736 g	15.862 g	7.316 g	74.87 μg Fe/g dry leave	55.15 μg Fe/number of leaves	77.22 μg Fe/g dry root	16.6	15.7	15.0	18.2	19.7	19.0	
O=C([O-])C(NCCNC(C(=O)[O-])c1ccccc1[O-])c1ccc(O)cc1.[Fe+3] (stereo not drawn) [Example 1, Fe-o,p-EDDHA]	1.136 g	0.595 g	6.282 g	21.186 g	8.933 g	80.98 μg Fe/g dry leave	91.91 μg Fe/number of leaves	128.48 μg Fe/g dry root	14.7	14.0	18.0	21.4	13.9	24.9	Course of SPAD values compared with Comparative Examples (in words) (Example 1 vs Comparative Examples 1 to 3, Example 2 vs Comparative Examples 4 and 5): raise considerably steeper; Weight of the plants compared with Comparative Examples (in words) (Example 1 vs Comparative Examples 1 to 3, Example 2 vs Comparative Examples 4 and 5, Table 3): considerable raise of weight of the plants; Iron content in parts of the plants compared with Comparative Examples (in words) (Example 1 vs Comparative Examples 1 to 3, Example 2 vs Comparative Examples 4 and 5, Table 4): increase in the iron content
